Measurements reported in patent publication US9061030B2, “sGC stimulators” (IRONWOOD PHARMACEUTICALS, INC., priority 2010, dated 2015).

What was measured:
[1] = target: T1, Human soluble guanylate cyclase enzyme (hsGC) (Homo sapiens, UniProt Q02108+Q02153); test: Purified human sGC enzyme activity assay (with or without SNP); type: biochemical; settings: 30 μM compound; for sGC Enzyme Activity Increase at 30 μM with SNP: 1 μM SNP, specific activity vs DMSO and SNP; for sGC Enzyme Activity Increase at 30 μM without SNP: specific activity vs DMSO control
T1 construct: purchased Enzo Inc. ALX-201-177
T1 sequence (Q02153 1-619): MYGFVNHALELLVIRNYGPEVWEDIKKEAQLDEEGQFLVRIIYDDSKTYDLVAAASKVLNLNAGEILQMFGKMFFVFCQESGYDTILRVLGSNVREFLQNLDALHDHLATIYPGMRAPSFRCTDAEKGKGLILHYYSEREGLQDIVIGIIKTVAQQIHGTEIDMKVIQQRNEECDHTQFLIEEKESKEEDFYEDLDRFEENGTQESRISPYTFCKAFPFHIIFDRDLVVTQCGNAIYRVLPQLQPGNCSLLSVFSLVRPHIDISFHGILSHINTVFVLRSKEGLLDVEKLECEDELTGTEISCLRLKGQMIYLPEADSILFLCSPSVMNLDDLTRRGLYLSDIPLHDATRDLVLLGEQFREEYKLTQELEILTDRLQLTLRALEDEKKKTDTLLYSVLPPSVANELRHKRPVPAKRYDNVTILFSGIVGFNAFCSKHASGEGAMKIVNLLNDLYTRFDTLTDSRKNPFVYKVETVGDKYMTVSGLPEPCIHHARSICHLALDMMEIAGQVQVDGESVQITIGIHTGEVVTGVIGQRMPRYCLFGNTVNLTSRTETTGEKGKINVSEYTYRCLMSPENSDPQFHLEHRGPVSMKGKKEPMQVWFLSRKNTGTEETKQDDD
T1 sequence (Q02108 1-690): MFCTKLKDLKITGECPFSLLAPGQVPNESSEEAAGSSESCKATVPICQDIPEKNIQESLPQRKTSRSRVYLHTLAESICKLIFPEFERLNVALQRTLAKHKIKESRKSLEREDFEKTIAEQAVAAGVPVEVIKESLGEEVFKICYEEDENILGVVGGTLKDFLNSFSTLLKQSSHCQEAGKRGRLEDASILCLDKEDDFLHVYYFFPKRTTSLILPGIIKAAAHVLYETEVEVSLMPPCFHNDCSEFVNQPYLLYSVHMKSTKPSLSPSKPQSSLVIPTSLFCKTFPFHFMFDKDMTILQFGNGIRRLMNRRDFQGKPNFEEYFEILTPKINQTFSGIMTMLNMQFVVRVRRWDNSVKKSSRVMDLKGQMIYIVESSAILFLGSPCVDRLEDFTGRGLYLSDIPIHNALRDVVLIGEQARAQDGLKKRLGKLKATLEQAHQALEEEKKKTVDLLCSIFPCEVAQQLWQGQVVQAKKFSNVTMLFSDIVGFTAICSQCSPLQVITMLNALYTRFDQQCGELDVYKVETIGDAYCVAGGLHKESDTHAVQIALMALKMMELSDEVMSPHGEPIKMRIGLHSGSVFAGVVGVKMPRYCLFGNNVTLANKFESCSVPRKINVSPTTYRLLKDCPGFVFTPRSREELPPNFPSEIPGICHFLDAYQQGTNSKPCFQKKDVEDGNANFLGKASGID
Protocol: Human soluble guanylate cyclase enzyme (hsGC) obtained from Enzo Inc. (P/N: ALX-201-177) was used to evaluate the activity of test compounds. The assay reactions contained 0.1 M Tris (pH 8.0), 0.5 mg/mL BSA (pH 8.0), 2 mM DTT, 2 mM MgCl2, 300 μM GTP, 1 mM 3-isobutyl-1-methylxanthine (IBMX) and 5 ng human soluble guanylate cyclase enzyme. Test compounds in DMSO were then added (2 μL, 10 or 30 μM final concentration) and incubated (200 μL, 96-well plate format) at 37° C. for 30 minutes. The controls were carried out using 2 μL DMSO. After the 30 minute incubation, the reaction was stopped with the addition of 200 μL of cold methanol. The plate was then centrifuged at 3,200 rpm for 10 minutes at room temperature. Supernatants (200 μL) were collected and transferred to a new 96 well plate for analysis.
An 8 point cGMP (Sigma-Aldrich P/N: G6129) standard curve was prepared in assay buffer ranging from 0.156-20 μM. Samples for the cGMP standard curve were then diluted with an equal volume of methanol resulting in final cGMP concentrations of 0.078-10 μM.
The cGMP standard curve was generated using GraphPad Prism Software.
Calculations: Specific Activity was determined by the amount of cGMP formed (nmoles) per mg of sGC per min. Enzyme activity “fold-change” was calculated by dividing the Specific Activity for a test compound by the Specific Activity of DMSO control.
The enzymatic activity fold-change of the purified human sGC enzyme determined in the presence of each of the test compounds individually at 10 or 30 μm without the addition of sodium nitroprusside (SNP), a nitric oxide donor, is presented in Table 5.
Enzyme assays were also performed as described above, but in the presence of 1 μM sodium nitroprusside (SNP). Enzymatic activity fold-changes are reported for selected test compounds in the presence of both SNP and the test compound. These were calculated by dividing the specific activity (activity increase) for the test compound dissolved in DMSO and SNP over the specific activity for the mixture of DMSO and SNP.

[2] = target: T2, soluble guanylate cyclase (sGC) (Homo sapiens, UniProt Q02108+Q02153); test: sGC-HEK-cGMP assay; type: cell-based; settings: HEK293 cells, 10 μM SNP, percentage of sGC activity obtained with positive control BAY 41-2272 (= 100%); for Emax at 10 µM: compound at 10 μM; for Emax at 30 µM: compound at 30 μM
T2 construct: endogenously expressing soluble guanylate cyclase (sGC); endogenous in cells; host or cells: HEK293
T2 sequence (Q02153 1-619): T1 sequence (Q02153 1-619)
T2 sequence (Q02108 1-690): T1 sequence (Q02108 1-690)
Protocol: Human embryonic kidney cells (HEK293), endogenously expressing soluble guanylate cyclase (sGC), were used to evaluate the activity of the test compounds. Compounds stimulating the sGC receptor should cause an increase in the intracellular concentration of cGMP. HEK 293 cells were seeded in Dulbecco's Modification of Eagle's Medium supplemented with fetal bovine serum (10% final) and L-glutamine (2 mM final) in a 200 μL volume at a density of 1×10^5 cells/well in a poly-D-lysine coated 96 well flat bottom plate and grown overnight at 37° C. Medium was aspirated and cells were washed with 1× Hank's Buffered Saline Salt Solution (200 μL). Cells were then incubated for 15 minutes at 37° C. with 0.5 mM 3-isobutyl-1-methylxanthine (200 μL). Test article was then added to the assay mixture (2 μL) and incubated in the presence of 10 μM Sodium Nitroprusside (SNP) at 37° C. for 10 minutes. After the 10 minute incubation, the assay mixture was aspirated and 0.1M HCl (200 μL) was added to the cells. The plate was incubated at 4° C. for 30 minutes in the 0.1M HCl to stop the reaction and lysed the cells. The plates were then centrifuged at 1,200 g for 5 minutes at room temperature. Supernatants were collected and transferred to a new flat bottom 96 well plate for analysis. Vehicle controls were carried out using DMSO (1%). A known sGC stimulator, BAY 41-2272, was used as the positive control.
Samples were diluted with an equal volume of 1 M Ammonium Acetate (pH 7) to neutralize samples for better chromatography. A 2×cGMP standard curve was prepared in 0.1 M HCl and then diluted with an equal volume of 1 M Ammonium Acetate, with the following final concentrations in nM: 1024, 512, 256, 128, 64, 32, 16, 8, 4, 2, 1.cGMP concentrations were determined from each sample using the LC/MS conditions (Table 2 below) and calculated standard curve. EC50 values were calculated from concentration-response curves generated with GraphPad Prism Software.
The biological activities of some of the compounds according to Formula IA or Formula IB determined with the sGC-HEK assay are summarized in Table 3 below.

Fc1ccccc1Cn1nc(-c2ccccn2)nc1-c1ccccc1 [Compound I-2]
sGC Enzyme Activity Increase at 30 μM with SNP [1]: C (C = 2 to <5 fold increase)
sGC Enzyme Activity Increase at 30 μM without SNP [1]: D (D = 5 to <10 fold increase)
Emax at 10 µM [2]: 5 to 10%
Emax at 30 µM [2]: 5 to 10%

Fc1ccccc1Cn1nc(-c2cscn2)nc1-c1ccccn1 [Compound I-5]
sGC Enzyme Activity Increase at 30 μM with SNP [1]: C (C = 2 to <5 fold increase)
sGC Enzyme Activity Increase at 30 μM without SNP [1]: B (B = 1 to <2 fold increase)
Emax at 10 µM [2]: 5 to 10%
Emax at 30 µM [2]: 10 to 20%

Fc1ccccc1Cn1nc(-c2ncco2)nc1-c1ccccn1 [Compound I-7]
sGC Enzyme Activity Increase at 30 μM with SNP [1]: B (B = 1 to <2 fold increase)
sGC Enzyme Activity Increase at 30 μM without SNP [1]: B (B = 1 to <2 fold increase)
Emax at 10 µM [2]: 0 to 5%
Emax at 30 µM [2]: 5 to 10%

Fc1ccccc1Cn1nc(-c2ncco2)nc1-c1ncccn1 [Compound I-8]
sGC Enzyme Activity Increase at 30 μM with SNP [1]: B (B = 1 to <2 fold increase)
sGC Enzyme Activity Increase at 30 μM without SNP [1]: C (C = 2 to <5 fold increase)
Emax at 10 µM [2]: 0 to 5%
Emax at 30 µM [2]: 0 to 5%

Fc1ccccc1Cn1nc(-c2ncccn2)nc1-c1ncco1 [Compound I-9]
sGC Enzyme Activity Increase at 30 μM with SNP [1]: B (B = 1 to <2 fold increase)
sGC Enzyme Activity Increase at 30 μM without SNP [1]: C (C = 2 to <5 fold increase)
Emax at 10 µM [2]: 0 to 5%
Emax at 30 µM [2]: 5 to 10%

Fc1ccccc1Cn1nc(-c2ncccn2)nc1-c1ccco1 [Compound I-11]
sGC Enzyme Activity Increase at 30 μM with SNP [1]: C (C = 2 to <5 fold increase)
sGC Enzyme Activity Increase at 30 μM without SNP [1]: C (C = 2 to <5 fold increase)
Emax at 10 µM [2]: 10 to 20%
Emax at 30 µM [2]: 10 to 20%

Fc1ccccc1Cn1nc(-c2cocn2)nc1-c1ccccn1 [Compound I-13, 4-(1-(2-fluorobenzyl)-5-(pyridin-2-yl)-1H-1,2,4-triazol-3-yl)oxazole]
sGC Enzyme Activity Increase at 30 μM with SNP [1]: B (B = 1 to <2 fold increase)
sGC Enzyme Activity Increase at 30 μM without SNP [1]: C (C = 2 to <5 fold increase)
Emax at 10 µM [2]: 0 to 5%
Emax at 30 µM [2]: 0 to 5%

Nc1cccc(-c2nc(-c3nccs3)n(Cc3ccccc3F)n2)n1 [Compound I-14, 6-(1-(2-fluorobenzyl)-5-(thiazol-2-yl)-1H-1,2,4-triazol-3-yl)pyridin-2-amine]
sGC Enzyme Activity Increase at 30 μM with SNP [1]: C (C = 2 to <5 fold increase)
sGC Enzyme Activity Increase at 30 μM without SNP [1]: B (B = 1 to <2 fold increase)
Emax at 10 µM [2]: 5 to 10%
Emax at 30 µM [2]: 10 to 20%

Fc1ccccc1Cn1nc(-c2ccccn2)nc1Br [Compound I-16, 2-(5-bromo-1-(2-fluorobenzyl)-1H-1,2,4-triazol-3-yl)pyridine]
sGC Enzyme Activity Increase at 30 μM with SNP [1]: C (C = 2 to <5 fold increase)
sGC Enzyme Activity Increase at 30 μM without SNP [1]: B (B = 1 to <2 fold increase)
Emax at 10 µM [2]: 0 to 5%
Emax at 30 µM [2]: 5 to 10%

Fc1ccccc1Cn1nc(-c2nccs2)nc1-c1cccc(Br)n1 [Compound I-18, 2-(5-(6-bromopyridin-2-yl)-1-(2-fluorobenzyl)-1H-1,2,4-triazol-3-yl)thiazole]
sGC Enzyme Activity Increase at 30 μM with SNP [1]: C (C = 2 to <5 fold increase)
sGC Enzyme Activity Increase at 30 μM without SNP [1]: B (B = 1 to <2 fold increase)
Emax at 10 µM [2]: 0 to 5%
Emax at 30 µM [2]: 0 to 5%

Fc1ccccc1Cn1nc(-c2cccc(Br)n2)nc1-c1nccs1 [Compound I-19, 2-(3-(6-bromopyridin-2-yl)-1-(2-fluorobenzyl)-1H-1,2,4-triazol-5-yl)thiazole]
sGC Enzyme Activity Increase at 30 μM with SNP [1]: C (C = 2 to <5 fold increase)
sGC Enzyme Activity Increase at 30 μM without SNP [1]: B (B = 1 to <2 fold increase)
Emax at 10 µM [2]: 10 to 20%
Emax at 30 µM [2]: 0 to 5%

Fc1ccccc1Cn1nc(-c2cscn2)nc1-c1ncccn1 [Compound I-20]
sGC Enzyme Activity Increase at 30 μM with SNP [1]: B (B = 1 to <2 fold increase)
sGC Enzyme Activity Increase at 30 μM without SNP [1]: B (B = 1 to <2 fold increase)
Emax at 10 µM [2]: 0 to 5%
Emax at 30 µM [2]: 0 to 5%

Fc1ccccc1Cn1nc(-c2ccccn2)nc1C1CC1 [Compound I-21]
sGC Enzyme Activity Increase at 30 μM with SNP [1]: B (B = 1 to <2 fold increase)
sGC Enzyme Activity Increase at 30 μM without SNP [1]: B (B = 1 to <2 fold increase)
Emax at 10 µM [2]: 0 to 5%
Emax at 30 µM [2]: 0 to 5%

Fc1ccccc1Cn1nc(-c2ccccn2)nc1C1CCC1 [Compound I-24]
sGC Enzyme Activity Increase at 30 μM with SNP [1]: C (C = 2 to <5 fold increase)
sGC Enzyme Activity Increase at 30 μM without SNP [1]: C (C = 2 to <5 fold increase)
Emax at 10 µM [2]: 5 to 10%
Emax at 30 µM [2]: 10 to 20%

NC(=O)c1ccnc(-c2nc(-c3nccs3)n(Cc3ccccc3F)n2)c1 [Compound I-64, 2-(1-(2-fluorobenzyl)-5-(thiazol-2-yl)-1H-1,2,4-triazol-3-yl)isonicotinamide]
Emax at 10 µM [2]: 10 to 20%
Emax at 30 µM [2]: 5 to 10%

Nc1ccnc(-c2nc(-c3cocn3)n(Cc3ccccc3F)n2)c1 [Compound I-66, 2-(1-(2-fluorobenzyl)-5-(oxazol-4-yl)-1H-1,2,4-triazol-3-yl)pyridin-4-amine]
Emax at 10 µM [2]: 40 to 60%
Emax at 30 µM [2]: 40 to 60%
